What was measured:
in vitro [1] = settings: human
[2] = test system: SARS-CoV-2 WA1 (USA-WA1/2020); assay: Antiviral immunofluorescence assay, SARS-CoV-2 WA1 in Calu-3 cells; format: cell-based; settings: for EC50: Severe acute respiratory syndrome coronavirus 2, Calu-3, WA1, Calu-3 cells, read-out: EC50; for EC50 / EC90: immunofluorescence, 44 hpi, mean ± SD; for EC90: Severe acute respiratory syndrome coronavirus 2, WA1, Calu-3 cells; for fold lower EC50 compared to V2043: Calu-3 and Huh7.5 cells; for fold more active than RDV: Calu-3 cells, based on EC50; for fold more active than 116-N1, the parent nucleoside of VV116: own EC50 compared with 116-N1 of ref 15
SARS-CoV-2 (WA-1) = assay: Antiviral immunofluorescence assay, SARS-CoV-2 WA1 in Huh7.5 cells; format: cell-based; settings: Severe acute respiratory syndrome coronavirus 2, WA-1, Huh7.5 cells, immunofluorescence, 48 hpi; for EC50: read-out: EC50; for EC90: read-out: EC90
in vitro [3] = settings: human; remark: listed apart in the source

SMILES	CC50 at 44 h (in vitro [1])	EC50 [2]	EC90 [2]	EC50 (SARS-CoV-2 (WA-1))	EC90 (SARS-CoV-2 (WA-1))	CC50 at 48 h (in vitro [3])	fold lower EC50 compared to V2043 [2]	fold more active than RDV [2]	fold more active than 116-N1, the parent nucleoside of VV116 [2]
CCCCCCCCCCCCCCCCCCOC[C@@H](COP(=O)(O)OC[C@H]1O[C@@](C#N)(c2ccc3c(N)ncnn23)[C@H](O)[C@@H]1O)OCc1ccccc1 [Compound 9b, ((2R,3S,4R,5R)-5-(4-Aminopyrrolo[2,1-f][1,2,4]triazin-7-yl)-5-cyano-3,4-dihydroxytetrahydrofuran-2-yl)methyl ((S)-2-(benzyloxy)-3-(octadecyloxy)propyl) hydrogen phosphate]	93.4 µM	0.16 ± 0.024 µM	0.625 ± 0.195 µM						
CCCCCCCCCCCCCCCCCCOC[C@H](COP(=O)(O)OC[C@H]1O[C@@](C#N)(c2ccc3c(N)ncnn23)[C@H](O)[C@@H]1O)OCc1cccc(C(F)(F)F)c1 [Compound 9e, ((2R,3S,4R,5R)-5-(4-Aminopyrrolo[2,1-f][1,2,4]triazin-7-yl)-5-cyano-3,4-dihydroxytetrahydrofuran-2-yl)methyl ((R)-3-(octadecyloxy)-2-((3-(trifluoromethyl)benzyl)oxy)propyl) hydrogen phosphate]	66.9 µM	0.16 ± 0.093 µM	0.316 ± 0.083 µM						
CCCCCCCCCCCCCCCCCCOC[C@H](COP(=O)(O)OC[C@H]1O[C@@](C#N)(c2ccc3c(N)ncnn23)[C@H](O)[C@@H]1O)OCc1ccc(C(F)(F)F)cc1 [Compound 9f, ((2R,3S,4R,5R)-5-(4-Aminopyrrolo[2,1-f][1,2,4]triazin-7-yl)-5-cyano-3,4-dihydroxytetrahydrofuran-2-yl)methyl ((R)-3-(octadecyloxy)-2-((4-(trifluoromethyl)benzyl)oxy)propyl) hydrogen phosphate]	90.2 µM	0.177 ± 0.012 µM	0.408 ± 0.181 µM						
CCCCCCCCCCCCCCCCCCOC[C@H](COP(=O)(O)OC[C@H]1O[C@@](C#N)(c2ccc3c(N)ncnn23)[C@H](O)[C@@H]1O)OCc1ccc(C#N)cc1 [Compound 9j, ((2R,3S,4R,5R)-5-(4-Aminopyrrolo[2,1-f][1,2,4]triazin-7-yl)-5-cyano-3,4-dihydroxytetrahydrofuran-2-yl)methyl ((R)-2-((4-cyanobenzyl)oxy)-3-(octadecyloxy)propyl) hydrogen phosphate]	60.2 µM	0.043 ± 0.013 µM	0.082 ± 0.022 µM	0.024 ± 0.002 µM	0.07 ± 0.01 µM	47.2 µM	3–5.5 fold	5.3 fold	11.5 fold
CCCCCCCCCCCCCCCCCCOC[C@H](COP(=O)(O)OC[C@H]1O[C@@](C#N)(c2ccc3c(N)ncnn23)[C@H](O)[C@@H]1O)OCc1cccc(C#N)c1 [Compound 9k, ((2R,3S,4R,5R)-5-(4-Aminopyrrolo[2,1-f][1,2,4]triazin-7-yl)-5-cyano-3,4-dihydroxytetrahydrofuran-2-yl)methyl ((R)-2-((3-cyanobenzyl)oxy)-3-(octadecyloxy)propyl) hydrogen phosphate]	61.6 µM	0.034 ± 0.007 µM	0.065 ± 0.036 µM	0.024 ± 0.006 µM	0.077 ± 0.017 µM	49.6 µM	3–5.5 fold	6.7 fold	9.1 fold
CCCCCCCCCCCCCCCCCCOC[C@H](COP(=O)(O)OC[C@H]1O[C@@](C#N)(c2ccc3c(N)ncnn23)[C@H](O)[C@@H]1O)OCc1ccccc1C#N [Compound 9l, ((2R,3S,4R,5R)-5-(4-Aminopyrrolo[2,1-f][1,2,4]triazin-7-yl)-5-cyano-3,4-dihydroxytetrahydrofuran-2-yl)methyl ((R)-2-((2-cyanobenzyl)oxy)-3-(octadecyloxy)propyl) hydrogen phosphate]	82.8 µM	0.091 ± 0.025 µM	0.186 ± 0.047 µM	0.102 ± 0.017 µM	0.281 ± 0.03 µM	> 100 µM			
